The structures appear in SMILES notation.

In this assay the target is T1, Dihydrofolate reductase (Homo sapiens, UniProt P00374).
T1 sequence (P00374 whole entry): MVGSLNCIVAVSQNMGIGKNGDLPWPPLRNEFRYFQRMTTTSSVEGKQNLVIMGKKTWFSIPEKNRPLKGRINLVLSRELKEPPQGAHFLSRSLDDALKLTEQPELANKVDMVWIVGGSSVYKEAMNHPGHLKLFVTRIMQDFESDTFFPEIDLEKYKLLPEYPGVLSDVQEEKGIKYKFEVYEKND
Put plainly: ChEBML_54117. From the text:
Inhibitory activity towards dihydrofolate reductase derived from human manca leukemia cells

Consider `CCC(Cc1ccc(C(=O)NC(CCC(=O)O)C(=O)O)cc1)c1cnc2nc(N)nc(N)c2n1` (stereo unspecified), for which the half-maximal inhibitory concentration (IC50) (commonly the point on the concentration scale where inhibition reaches its midpoint) turned out to be 70 nM.

(Values after BindingDB's records for doi:10.1021/jm00163a035 (Sri International, 1990).)
